In brackets after ≈: the same amount, converted by molar mass.
System: Staphylococcus aureus (ATTC 25923)
Test: microbe, parasite or virus in culture
Type: cell-based
Settings: ATTC 25923
Procedure, shortened: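 Di-TFA salts tested in duplicate at 0.5–200 μg/ml against exponential-phase bacteria at 2×10^6 cfu/ml grown in 2% peptone water. Growth judged by well turbidity, with no-peptide and gentamicin controls.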

Row | Compound | MBC S. aureus
1 | CC(C)(C)c1ccc(CC(CN)(Cc2ccc(C(C)(C)C)cc2)C(=O)N[C@@H](CCCNC(=N)N)C(N)=O)cc1 [Compound 4k] | 6.5 µM (≈ 3.49 µg/mL)
2 | COc1cc(CC(CN)(Cc2cc(OC)cc(OC)c2)C(=O)N[C@@H](CCCNC(=N)N)C(N)=O)cc(OC)c1 [Compound 4m] | >259 µM

Same assay, conditions: ATTC 25923; read-out: MIC S. aureus

Row | Compound | MIC
3 | CC(C)(C)c1ccc(CC(CN)(Cc2ccc(C(C)(C)C)cc2)C(=O)N[C@@H](CCCNC(=N)N)C(N)=O)cc1 [Compound 4k] | 6.5 µM (≈ 3.49 µg/mL)
4 | COc1cc(CC(CN)(Cc2cc(OC)cc(OC)c2)C(=O)N[C@@H](CCCNC(=N)N)C(N)=O)cc(OC)c1 [Compound 4m] | 259 µM (≈ 141 µg/mL)

Same assay, conditions: EC50 RBC divided by MIC

Row | Compound | Therapeutic index S. aureus
5 | CN1CCN(C(=O)C(CN)(Cc2ccc3ccccc3c2)Cc2ccc3ccccc3c2)CC1 [Entry 5c] | 20
6 | CN(C)CCNC(=O)C(CN)(Cc1ccc2ccccc2c1)Cc1ccc2ccccc2c1 [Entry 6c] | 16
7 | NCCNC(=O)C(CN)(Cc1ccc2ccccc2c1)Cc1ccc2ccccc2c1 [Entry 7c] | 117

Same assay, conditions: Staphylococcus aureus, ATCC25923, Example 4; ATCC 25923; di-trifluoroacetate salts; highest concentration tested 200 μg/ml; read-out: MIC S. aureus

Row | Compound | MIC
8 | CN1CCN(C(=O)C(CN)(Cc2ccc3ccccc3c2)Cc2ccc3ccccc3c2)CC1 [Entry 5c] | 15 µM
9 | CN(C)CCNC(=O)C(CN)(Cc1ccc2ccccc2c1)Cc1ccc2ccccc2c1 [Entry 6c] | 7.5 µM
10 | NCCNC(=O)C(CN)(Cc1ccc2ccccc2c1)Cc1ccc2ccccc2c1 [Entry 7c] | 3.9 µM

System: Escherichia coli (ATTC 25922)
Test: microbe, parasite or virus in culture
Type: cell-based
Settings: ATTC 25922
Procedure, shortened: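 Broth dilution in 2% Bacto Peptone water, inoculum 2×10^6 cfu/ml of exponential-phase bacteria; compounds (di-TFA salts) tested in duplicate at 200 down to 0.5 μg/ml. Growth judged by well turbidity, with no-peptide negative and gentamicin positive controls.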

Row | Compound | MBC E. coli
11 | CC(C)(C)c1ccc(CC(CN)(Cc2ccc(C(C)(C)C)cc2)C(=O)N[C@@H](CCCNC(=N)N)C(N)=O)cc1 [Compound 4k] | 46 µM (≈ 24.7 µg/mL)
12 | COc1cc(CC(CN)(Cc2cc(OC)cc(OC)c2)C(=O)N[C@@H](CCCNC(=N)N)C(N)=O)cc(OC)c1 [Compound 4m] | >259 µM

Same assay, conditions: ATTC 25922; read-out: MIC E. coli

Row | Compound | MIC
13 | CC(C)(C)c1ccc(CC(CN)(Cc2ccc(C(C)(C)C)cc2)C(=O)N[C@@H](CCCNC(=N)N)C(N)=O)cc1 [Compound 4k] | 46 µM (≈ 24.7 µg/mL)

Same assay, conditions: EC50 RBC divided by MIC

Row | Compound | Therapeutic index E. coli
14 | CN1CCN(C(=O)C(CN)(Cc2ccc3ccccc3c2)Cc2ccc3ccccc3c2)CC1 [Entry 5c] | 14
15 | CN(C)CCNC(=O)C(CN)(Cc1ccc2ccccc2c1)Cc1ccc2ccccc2c1 [Entry 6c] | 5.1
16 | NCCNC(=O)C(CN)(Cc1ccc2ccccc2c1)Cc1ccc2ccccc2c1 [Entry 7c] | 19

Same assay, conditions: Escherichia coli, ATCC25922, Example 4; ATCC 25922; di-trifluoroacetate salts; highest concentration tested 200 μg/ml; read-out: MIC E. coli

Row | Compound | MIC
17 | CN1CCN(C(=O)C(CN)(Cc2ccc3ccccc3c2)Cc2ccc3ccccc3c2)CC1 [Entry 5c] | 22 µM
18 | CN(C)CCNC(=O)C(CN)(Cc1ccc2ccccc2c1)Cc1ccc2ccccc2c1 [Entry 6c] | 23 µM
19 | NCCNC(=O)C(CN)(Cc1ccc2ccccc2c1)Cc1ccc2ccccc2c1 [Entry 7c] | 24 µM

Molecular target: α-chymotrypsin (Bos taurus, UniProt P00766, DEL14-15/DEL147-148)
Test: Stability against α-chymotrypsin
Type: in vitro ADME
Settings: over a period of 48 hours
Procedure: The stability testing against α-chymotrypsin was conducted by dissolving the desired compounds to 1 mg/ml in water. α-Chymotrypsin was dissolved to 0.1 mg/ml in 1 mM HCl containing 2 mM CaCl2. The enzymatic digestion was performed in 100 mM TRIS HCl containing 10 mM CaCl2. Final enzyme concentration was 2 μg/ml, and final peptide concentration was 100 μg/ml. Total volume was 0.5 ml.
15 μl samples were collected at 0, 15, 30, 60, 120 and 240 min in addition to the 24 and 48 hours samples. To the samples it was added an external standard (atenolol hydrochloride) and 100 μl 10% acetic acid to terminate digestion before it was diluted to 1 ml with water.
For every test there were done a negative control without enzyme to ensure that degradation was due to enzyme activity and not other factors. Succinyl-ala-ala-pro-phe-para nitroanhiine was used as positive control. All test were run in triplicates.

Row | Compound | proteolytic stability against α-chymotrypsin
20 | CC(C)(C)c1ccc(CC(CN)(Cc2ccc(C(C)(C)C)cc2)C(=O)N[C@@H](CCCNC(=N)N)C(N)=O)cc1 [Compound 4k] | no degradation could be detected
21 | COc1cc(CC(CN)(Cc2cc(OC)cc(OC)c2)C(=O)N[C@@H](CCCNC(=N)N)C(N)=O)cc(OC)c1 [Compound 4m] | no degradation could be detected

System: human red blood cells
Test: cells
Type: cell-based
Settings: Erythrocyte; Example 4; hemolytic activity, human red blood cells; highest concentration tested 1000 μg/ml; read-out: EC50 RBC
Procedure, shortened: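 Washed heparinized RBCs, diluted to 10% hematocrit then to 1% v/v final, incubated with compounds in PBS (1–1000 μg/mL) for 1 h at 37 °C with agitation. Hemoglobin release read at 405 nm against PBS (0%) and 0.1% Triton X-100 (100%); value reported is concentration giving 50% hemolysis.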

Row | Compound | EC50
22 | CN1CCN(C(=O)C(CN)(Cc2ccc3ccccc3c2)Cc2ccc3ccccc3c2)CC1 [Entry 5c] | 303 µM
23 | CN(C)CCNC(=O)C(CN)(Cc1ccc2ccccc2c1)Cc1ccc2ccccc2c1 [Entry 6c] | 117 µM
24 | NCCNC(=O)C(CN)(Cc1ccc2ccccc2c1)Cc1ccc2ccccc2c1 [Entry 7c] | 457 µM

System: not listed separately
Test: Phospholipid vesicle based barrier model permeability
Type: in vitro ADME
Settings: among 4c, 5c, 6c and 7c
Excerpt: Encouraged by the theoretical calculations, the permeability of the β^2,2-amino acid derivatives was further investigated using a recently established phospholipid vesicle based barrier model (Flaten et al. Eur. J. Pharm. Sci. [2006] 27, 80-90).

Row | Compound | experimental permeability values, rank
25 | CN1CCN(C(=O)C(CN)(Cc2ccc3ccccc3c2)Cc2ccc3ccccc3c2)CC1 [Entry 5c] | highest permeability

Same assay, conditions: phospholipid vesicle based barrier model

Row | Compound | permeability, model's classification of absorption
26 | CN1CCN(C(=O)C(CN)(Cc2ccc3ccccc3c2)Cc2ccc3ccccc3c2)CC1 [Entry 5c] | moderately absorbed in humans
27 | CN(C)CCNC(=O)C(CN)(Cc1ccc2ccccc2c1)Cc1ccc2ccccc2c1 [Entry 6c] | moderately absorbed in humans
28 | NCCNC(=O)C(CN)(Cc1ccc2ccccc2c1)Cc1ccc2ccccc2c1 [Entry 7c] | moderately absorbed in humans

System: Pseudomonas aeruginosa (ATCC 27853)
Test: microbe, parasite or virus in culture
Type: cell-based
Settings: EC50 RBC divided by MIC
Procedure: Each compound was tested in duplicates at 200, 100, 50, 35, 15, 10, 5, 2.5, 1, 0.5 μg/ml. All tested compounds were di-trifluoroacetic acid salts.

Row | Compound | Therapeutic index P. aeruginosa
29 | CN(C)CCNC(=O)C(CN)(Cc1ccc2ccccc2c1)Cc1ccc2ccccc2c1 [Entry 6c] | 0.4
30 | NCCNC(=O)C(CN)(Cc1ccc2ccccc2c1)Cc1ccc2ccccc2c1 [Entry 7c] | 8.3

Same assay, conditions: Pseudomonas aeruginosa, ATCC27853; Example 4; ATCC 27853; di-trifluoroacetate salts; highest concentration tested 200 μg/ml; read-out: MIC P. aeruginosa

Row | Compound | MIC
31 | CN1CCN(C(=O)C(CN)(Cc2ccc3ccccc3c2)Cc2ccc3ccccc3c2)CC1 [Entry 5c] | > 200 µg/mL
32 | CN(C)CCNC(=O)C(CN)(Cc1ccc2ccccc2c1)Cc1ccc2ccccc2c1 [Entry 6c] | 300 µM
33 | NCCNC(=O)C(CN)(Cc1ccc2ccccc2c1)Cc1ccc2ccccc2c1 [Entry 7c] | 55 µM

System: methicillin resistant Staphylococcus aureus (ATCC 33591)
Test: microbe, parasite or virus in culture
Type: cell-based
Settings: ATCC 33591
Procedure, shortened: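 Di-TFA salts tested in duplicate at 200 down to 0.5 μg/ml against exponentially grown bacteria at 2×10^6 cfu/ml. Growth judged by well turbidity, with no-peptide and gentamicin controls.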

Row | Compound | MBC MRSA | MIC MRSA
34 | CC(C)(C)c1ccc(CC(CN)(Cc2ccc(C(C)(C)C)cc2)C(=O)N[C@@H](CCCNC(=N)N)C(N)=O)cc1 [Compound 4k] | 6.5 µM (≈ 3.49 µg/mL) | 3.3 µM (≈ 1.77 µg/mL)
35 | COc1cc(CC(CN)(Cc2cc(OC)cc(OC)c2)C(=O)N[C@@H](CCCNC(=N)N)C(N)=O)cc(OC)c1 [Compound 4m] | 259 µM (≈ 141 µg/mL) | 259 µM (≈ 141 µg/mL)

Same assay, conditions: EC50 RBC divided by MIC

Row | Compound | Therapeutic index MRSA
36 | CN1CCN(C(=O)C(CN)(Cc2ccc3ccccc3c2)Cc2ccc3ccccc3c2)CC1 [Entry 5c] | 41
37 | CN(C)CCNC(=O)C(CN)(Cc1ccc2ccccc2c1)Cc1ccc2ccccc2c1 [Entry 6c] | 16
38 | NCCNC(=O)C(CN)(Cc1ccc2ccccc2c1)Cc1ccc2ccccc2c1 [Entry 7c] | 59

Same assay, conditions: Staphylococcus aureus, ATCC33591, Example 4; ATCC 33591; di-trifluoroacetate salts; highest concentration tested 200 μg/ml; read-out: MIC MTRSA

Row | Compound | MIC
39 | CN1CCN(C(=O)C(CN)(Cc2ccc3ccccc3c2)Cc2ccc3ccccc3c2)CC1 [Entry 5c] | 7.4 µM
40 | CN(C)CCNC(=O)C(CN)(Cc1ccc2ccccc2c1)Cc1ccc2ccccc2c1 [Entry 6c] | 7.5 µM
41 | NCCNC(=O)C(CN)(Cc1ccc2ccccc2c1)Cc1ccc2ccccc2c1 [Entry 7c] | 7.8 µM

System: methicillin resistant Staphylococcus epidermidis (ATCC 27626)
Test: microbe, parasite or virus in culture
Type: cell-based
Settings: ATCC 27626
Procedure, shortened: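 Exponentially grown bacteria (2% peptone water) at 2×10^6 cfu/ml exposed in duplicate to di-TFA salts at 0.5–200 μg/ml. Growth or no growth judged by well turbidity; no-peptide and gentamicin controls included.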

Row | Compound | MBC MRSE
42 | CC(C)(C)c1ccc(CC(CN)(Cc2ccc(C(C)(C)C)cc2)C(=O)N[C@@H](CCCNC(=N)N)C(N)=O)cc1 [Compound 4k] | 5.2 µM (≈ 2.79 µg/mL)
43 | COc1cc(CC(CN)(Cc2cc(OC)cc(OC)c2)C(=O)N[C@@H](CCCNC(=N)N)C(N)=O)cc(OC)c1 [Compound 4m] | 129 µM (≈ 70.3 µg/mL)

Same assay, conditions: ATCC 27626; read-out: MIC MRSE

Row | Compound | MIC
44 | CC(C)(C)c1ccc(CC(CN)(Cc2ccc(C(C)(C)C)cc2)C(=O)N[C@@H](CCCNC(=N)N)C(N)=O)cc1 [Compound 4k] | 5.0 µM (≈ 2.68 µg/mL)
45 | COc1cc(CC(CN)(Cc2cc(OC)cc(OC)c2)C(=O)N[C@@H](CCCNC(=N)N)C(N)=O)cc(OC)c1 [Compound 4m] | 129 µM (≈ 70.3 µg/mL)

Same assay, conditions: EC50 RBC divided by MIC

Row | Compound | Therapeutic index MRSE
46 | CN1CCN(C(=O)C(CN)(Cc2ccc3ccccc3c2)Cc2ccc3ccccc3c2)CC1 [Entry 5c] | 20
47 | CN(C)CCNC(=O)C(CN)(Cc1ccc2ccccc2c1)Cc1ccc2ccccc2c1 [Entry 6c] | 16
48 | NCCNC(=O)C(CN)(Cc1ccc2ccccc2c1)Cc1ccc2ccccc2c1 [Entry 7c] | 117

Same assay, conditions: Staphylococcus epidermidis, ATCC 27626 / MRSE, Example 4; ATCC 27626; di-trifluoroacetate salts; highest concentration tested 200 μg/ml; read-out: MIC MRSE

Row | Compound | MIC
49 | CN1CCN(C(=O)C(CN)(Cc2ccc3ccccc3c2)Cc2ccc3ccccc3c2)CC1 [Entry 5c] | 15 µM
50 | CN(C)CCNC(=O)C(CN)(Cc1ccc2ccccc2c1)Cc1ccc2ccccc2c1 [Entry 6c] | 7.5 µM
51 | NCCNC(=O)C(CN)(Cc1ccc2ccccc2c1)Cc1ccc2ccccc2c1 [Entry 7c] | 3.9 µM

From US8809280B2, “Therapeutic peptides” (Lytix Biopharma AS, priority 2009, dated 2014)
